Experimental data reported in ChEMBL document CHEMBL1126416, “Caracasanamide, a novel hypotensive agent from Verbesina caracasana” (Bioorg Med Chem Lett, 1992).

Key:
Assay type in all cases: functional, organism-based
[1] = tested on: Rattus norvegicus; assay: Concentration at which increase in tidal volume of anesthetized rat when administered intravenously was observed; 50-6400 ug/kg body weight
[2] = tested on: Rattus norvegicus; assay: Concentration at which decrease blood pressure of anesthetized rat when administered intravenously; 50-6400 ug/kg body weight
[3] = tested on: Rattus norvegicus; assay: Concentration at which increase in respiratory frequency of anesthetized rat when administered intravenously was observed; 50-6400 ug/kg body weight
[4] = tested on: Rattus norvegicus; assay: Concentration at which increase cardiac inotropism of anesthetized rat when administered intravenously was observed; 50-6400 ug/kg body weight
[5] = tested on: Rattus norvegicus; assay: Concentration at which no change in heart rate of anesthetized rat when administered intravenously was observed; 50-6400 ug/kg body weight

Measured: Concentration

COc1ccc(/C=C\C(=O)NCCCC/N=C(\N)NCC=C(C)C)cc1OC
50 µg/kg: [1] | [2] | [3] | [4] | [5]
